Assay results taken from the NIST ThermoML archive (doi:10.1016/j.jct.2016.07.003).
± gives the expanded uncertainty stated by the source.

How the values were obtained:
[1] = wn = mass fraction of the nth substance listed; settings: 87 kPa, Liquid, Vibrating tube method
[2] = osmotic coefficient (dimensionless); mn = molality of the nth substance listed, in mol/kg; settings: 298.15 K, 87 kPa, Liquid, isopiestic method
[3] = mn = molality of the nth substance listed, in mol/kg; settings: 87 kPa, Liquid, Vibrating tube method

[Cl-].[Li+] [lithium chloride] + O
mass density [kg/m3], [1]
Settings | 293.15 K | 298.15 K | 303.15 K | 308.15 K | 313.15 K
w1 = 0.0346 | – | 1016.17 ± 3.7 | 1014.72 ± 3.7 | 1013.08 ± 3.7 | 1011.25 ± 3.7
w1 = 0.0691 | 1036.35 ± 3.7 | 1035.04 ± 3.7 | 1033.55 ± 3.7 | 1031.8 ± 3.7 | 1030.06 ± 3.7
w1 = 0.1035 | 1055.18 ± 3.7 | 1053.81 ± 3.7 | 1052.33 ± 3.7 | 1050.73 ± 3.7 | 1049.03 ± 3.7
w1 = 0.1379 | 1074.05 ± 3.7 | 1072.65 ± 3.7 | 1071.16 ± 3.7 | 1069.55 ± 3.7 | 1067.85 ± 3.7

[2]
Settings | osmotic coefficient
m1 = 0.9064 | 1.02 ± 0.01
m1 = 1.278 | 1.08 ± 0.01
m1 = 1.439 | 1.09 ± 0.01
m1 = 1.616 | 1.09 ± 0.01
m1 = 1.667 | 1.11 ± 0.01
m1 = 1.83 | 1.12 ± 0.01
m1 = 1.99 | 1.16 ± 0.01
m1 = 2.183 | 1.18 ± 0.01
m1 = 2.563 | 1.21 ± 0.01
m1 = 3.014 | 1.27 ± 0.01
m1 = 3.293 | 1.32 ± 0.02
m1 = 3.572 | 1.37 ± 0.02
m1 = 3.952 | 1.42 ± 0.02
m1 = 4.457 | 1.51 ± 0.02
m1 = 4.668 | 1.55 ± 0.02

CCn1cc[n+](C)c1.O=S(=O)([O-])O [1-ethyl-3-methylimidazolium hydrogen sulfate] + O
mass density [kg/m3], [3]
Settings | m1 = 0.0363 | m1 = 0.0687 | m1 = 0.1026 | m1 = 0.1384 | m1 = 0.1716 | m1 = 0.2049 | m1 = 0.2391 | m1 = 0.2718 | m1 = 0.3034 | m1 = 0.3375
293.15 K | 1000.86 ± 3 | 1003.08 ± 3 | 1005.3 ± 3 | 1007.57 ± 3 | 1009.63 ± 3 | 1011.67 ± 3 | 1013.72 ± 3 | 1015.68 ± 3 | 1017.53 ± 3 | 1019.54 ± 3
298.15 K | 999.65 ± 3 | 1001.82 ± 3 | 1003.99 ± 3 | 1006.22 ± 3 | 1008.23 ± 3 | 1010.23 ± 3 | 1012.24 ± 3 | 1014.17 ± 3 | 1016 ± 3 | 1017.98 ± 3
303.15 K | 998.2 ± 3 | 1000.33 ± 3 | 1002.46 ± 3 | 1004.64 ± 3 | 1006.63 ± 3 | 1008.6 ± 3 | 1010.58 ± 3 | 1012.47 ± 3 | 1014.26 ± 3 | 1016.21 ± 3
308.15 K | 996.54 ± 3 | 998.63 ± 3 | 1000.73 ± 3 | 1002.87 ± 3 | 1004.82 ± 3 | 1006.76 ± 3 | 1008.7 ± 3 | 1010.58 ± 3 | 1012.34 ± 3 | 1014.25 ± 3
313.15 K | 994.68 ± 3 | 996.73 ± 3 | 998.8 ± 3 | 1000.91 ± 3 | 1002.83 ± 3 | 1004.74 ± 3 | 1006.66 ± 3 | 1008.5 ± 3 | 1010.24 ± 3 | 1012.13 ± 3

[2]
Settings | osmotic coefficient
m1 = 1.038 | 0.895 ± 0.011
m1 = 1.543 | 0.897 ± 0.011
m1 = 1.745 | 0.898 ± 0.011
m1 = 1.961 | 0.9 ± 0.011
m1 = 2.045 | 0.904 ± 0.011
m1 = 2.251 | 0.909 ± 0.011
m1 = 2.534 | 0.915 ± 0.01
m1 = 2.814 | 0.919 ± 0.01
m1 = 3.343 | 0.93 ± 0.01
m1 = 4.042 | 0.948 ± 0.01
m1 = 4.513 | 0.96 ± 0.01
m1 = 5.04 | 0.974 ± 0.01
m1 = 5.663 | 0.993 ± 0.01
m1 = 6.555 | 1.03 ± 0.01
m1 = 6.91 | 1.05 ± 0.01
